# Experimental data reported in patent US9393288B2, “Methods of treating diseases associated with PPARγ” (The University of Vermont and State Agricultural College, priority 2012, dated 2016).
# Key:
# PPARγ target genes = assay: PPARγ target gene expression (real-time qPCR) in adipose tissue, pial arteries and PA, NP Sprague Dawley rats; type: in vivo, rat
# Description: (§1) Animals and Treatment Groups: All procedures were approved by the Institutional Animal Care and Use Committee and conducted in accordance with the National Institutes of Health Guide for the Care and Use of Laboratory Animals. Female virgin NP Sprague Dawley rats (250-300 g, 14-16 weeks, Charles River, Canada) were used for all experiments and housed in the University of Vermont Animal Care Facility. Animals were randomly selected and grouped as untreated (N=4), treated with recombinant human relaxin-2 (relaxin, 4 μg/hr; N=14), relaxin plus a specific PPARγ inhibitor GW9662 (10 mg/kg daily in food; N=8), or vehicle (20 mM sodium acetate; N=14) for 10 days through osmotic minipumps (Alzet 2ML2, Durect Corp., Cupertino, Calif., USA). GW9662 treatment was started 1 day before and for the duration of relaxin treatment to ensure PPARγ was inhibited. Animals were anesthetized with 3% isoflurane and minipumps implanted subcutaneously in the back of the neck. All animals received post-surgical analgesic (buprenorphine, 50 μg/kg, s.c.). Relaxin infusion was continuous for 10 days until animals were euthanized for vessel experiments and tissue collection. The minipumps used were capable of delivering relaxin for 14 days and thus tissue collection was within this duration.
# Determination of RXFP1 and PPARγ Target Gene Expression: MCA and PA from 4 untreated rats were collected to determine expression level of RXFP1, the primary relaxin receptor, using real-time qPCR methods. We also collected adipose tissue, pial arteries, and PA from vehicle, relaxin and relaxin+GW9662 groups (n=6 for each group) for determination of PPARγ target gene expression. All collected samples were stored in RNase inhibitor (1 unit/μl, RiboLock, Fermentas, Glen Burnie, Md., USA) at −80° C. for comparing expression of fatty acid translocase (FAT)/CD36 and liver X receptors-α (LXRα) for adipose tissue, and plasminogen activator inhibitor-1 (PAI-1) for vasculature. Standard techniques for real-time qPCR were performed by the Vermont Cancer Center DNA analysis facility at the University of Vermont, as described previously Cipolla et al. (2009) Stroke 40, 1451-1457. Briefly, RNA was extracted from tissues and concentration and integrity was determined by a NanoDrop ND-1000 Spectrophotometer (Wilmington, Del.) and an Agilent 2100 Bioanalyzer (Santa Clara, Calif., USA), respectively. Samples with low RNA quality were excluded. cDNA was then made by a SuperScript III Kit (Invitrogen, Carlsbad, Calif., USA). Real-time qPCR was set up as follows: 10 μL Universal PCR Master Mix (Applied Biosystems, Foster City, Calif., USA), 1 μL Assay on Demand (Applied Biosystems), 8 μL water, and 1 μL cDNA. β2-microglobulin (B2M, housekeeping control) and target genes were assessed using Assays on Demand from Applied Biosystems. […] Primers were designed across an exon-exon junction to avoid detecting genomic DNA. Thus, no DNase treatment of samples was necessary. All samples were run in duplicates using a 7900HT Sequence Detection System (Applied Biosystems). […]
# Data Calculations and Statistical Analysis: Percent tone was calculated as percent decrease in ID from the passive diameter at each intravascular pressure: [1−(IDactive/IDpassive)]×100%. Outer diameter (OD) was calculated from measured ID and WT: ID+2WT. Cross-sectional area (CSA) of the wall was calculated as: [(OD/2)2−(ID/2)2]×π. Data from qPCR study were analyzed using the −2^ΔΔCT method, as described previously Livak et al. (2001) Methods 25, 402-408. […]
# [1] = test system: middle cerebral arteries (MCA); assay: Pressurized arteriograph: vascular reactivity and structure of MCA from relaxin-treated NP Sprague Dawley rats; type: in vivo, rat; conditions: relaxin- vs vehicle-treated NP rats
# Description: as §1, with “Relaxin infusion was continuous for 10 days until animals were euthanized for vessel experiments and tissue collection. The minipumps used were capable of delivering relaxin for 14 days and thus tissue collection was within this duration.” left out
# Vessel Preparation and Pressurized Arteriograph System: After collecting trunk blood, the brain was quickly removed and placed in cold physiological salt solution (PSS). […] Temperature and pH were continuously measured and maintained at 37.0±0.5° C. and 7.40±0.05, respectively. […]
# Vascular Reactivity and Structural Characteristics in PA and MCA: For the first set of experiments, PA and MCA were equilibrated for 1 hour at 25 mmHg, after which myogenic activity was determined by stepwise increases in pressure from 40 to 100 mmHg for PA or 50 to 175 mmHg for MCA. ID and WT were measured at each pressure once stable. Changes in ID and WT were measured in PA only in response to small- (SKCa) and intermediate- (IKCa) conductance calcium-activated potassium channels blockers, apamin (3×10^−7 M) and TRAM-34 (10^−6 M), respectively. […] We therefore assessed the effect of relaxin on constriction of PA in response to SKCa/IKCa channel inhibition in order to assess this unique pathway. […]
substance,measurement,setting,value
relaxin,Gene expression of CD36 in adipose tissue,"PPARγ target genes; relaxin vs vehicle, NP rats",decreased
same,PAI-1 expression in pial arteries,"PPARγ target genes; relaxin vs vehicle, NP rats",did not significantly change
same,PAI-1 expression in PA,"PPARγ target genes; relaxin vs vehicle, NP rats, low sample numbers",did not significantly change
same,Gene expression of LXR-α in adipose tissue,"PPARγ target genes; similar trend as CD36 (decrease with relaxin, normalized by GW9662)",not statistically significant
same,Structure of MCA,[1],no effect
same,Tone of MCA,[1],did not significantly affect
same,Active diameters of MCA,[1]; any pressure,no effect
